Laboratory results reported in patent publication US9586950B2 (MERCK SHARP & DOHME CORP., priority 2012, dated 2017).
Where two headings read alike, the source gives them in different places.

Assays:
human orexin-2 receptor [1] = target: T1, human orexin-2 receptor (Homo sapiens (Human), UniProt O43614); experiment: radioligand binding assay, hOX2R BIND
Procedure: (§1) In a typical experiment the OX1 and OX2 receptor antagonistic activity of the compounds of the present invention was determined in accordance with the following experimental method. For intracellular calcium measurements, Chinese hamster ovary (CHO) cells expressing the rat orexin-1 receptor or the human orexin-2 receptor, are grown in Iscove's modified DMEM containing 2 mM L-glutamine, […], 1% hypoxanthine-thymidine supplement, 100 U/ml penicillin, 100 μg/ml streptomycin and 10% heat-inactivated fetal calf serum (FCS). The cells are seeded at 20,000 cells/well into Becton-Dickinson black 384-well clear bottom sterile plates coated with poly-D-lysine. All reagents were from GIBCO-Invitrogen Corp. The seeded plates are incubated overnight at 37° C. and 5% CO2. Ala-6,12 human orexin-A as the agonist is prepared as a 1 mM stock solution in 1% bovine serum albumin (BSA) and diluted in assay buffer (HBSS containing 20 mM HEPES, 0.1% BSA and 2.5 mM probenecid, pH7.4) for use in the assay at a final concentration of 70 pM. Test compounds are prepared as 10 mM stock solution in DMSO, then diluted in 384-well plates, first in DMSO, then assay buffer. On the day of the assay, cells are washed 3 times with 100 μl assay buffer and then incubated for 60 min (37° C., 5% CO2) in 60 μl assay buffer containing 1 μM Fluo-4AM ester, 0.02% pluronic acid, and 1% BSA. The dye loading solution is then aspirated and cells are washed 3 times with 100 μl assay buffer. 30 μl of that same buffer is left in each well. Within the Fluorescent Imaging Plate Reader (FLIPR, Molecular Devices), test compounds are added to the plate in a volume of 25 μl, incubated for 5 min and finally 25 μl of agonist is added. Fluorescence is measured for each well at 1 second intervals for 5 minutes and the height of each fluorescence peak is compared to the height of the fluorescence peak induced by 70 pM Ala-6,12 orexin-A with buffer in place of antagonist. […] Alternatively, compound potency can be assessed by a radioligand binding assay (described in Bergman et. al. Bioorg. Med. Chem. Lett. 2008, 18, 1425-1430) in which the inhibition constant (Ki) is determined in membranes prepared from CHO cells expressing either the OX1 or OX2 receptor. The intrinsic orexin receptor antagonist activity of a compound which may be used in the present invention may be determined by these assays.

[2] = target: hOX1R (orexin-1 receptor) (Rattus norvegicus, UniProt P56718); experiment: FLIPR Ca2+ Flux Assay, hOX1R FLIPR; assay type: cell-based; conditions: CHO cells, 70 pM Ala-6,12 human orexin-A agonist
Procedure: as §1

human orexin-2 receptor [3] = target: T1, human orexin-2 receptor; experiment: FLIPR Ca2+ Flux Assay, hOX2R FLIPR; assay type: cell-based; conditions: CHO cells, 70 pM Ala-6,12 human orexin-A agonist
Procedure: as §1

[4] = membranes from CHO cells expressing OX2 receptor, read-out: hOX2R BIND hKi

T1 sequence (O43614 whole entry): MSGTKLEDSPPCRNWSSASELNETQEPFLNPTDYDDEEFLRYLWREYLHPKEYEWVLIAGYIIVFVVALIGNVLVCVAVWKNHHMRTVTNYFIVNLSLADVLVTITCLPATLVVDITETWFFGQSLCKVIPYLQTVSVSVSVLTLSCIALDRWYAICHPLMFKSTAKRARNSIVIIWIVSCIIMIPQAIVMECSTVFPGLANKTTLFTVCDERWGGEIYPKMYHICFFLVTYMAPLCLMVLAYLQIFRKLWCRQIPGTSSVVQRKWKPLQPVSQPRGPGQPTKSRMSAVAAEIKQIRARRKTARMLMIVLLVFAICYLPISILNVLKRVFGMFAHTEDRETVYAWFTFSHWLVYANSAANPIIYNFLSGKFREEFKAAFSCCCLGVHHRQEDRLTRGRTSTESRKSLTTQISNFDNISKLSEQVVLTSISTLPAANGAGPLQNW

**Q.** `COC(=O)c1c(C#N)ccnc1O[C@@H]1CC[C@@H](C)N(C(=O)c2c(C)cccc2-n2nccn2)C1` [Example 19, methyl 4-cyano-2-{[(3R,6R)-6-methyl-1-{[2-methyl-6-(2H-1,2,3-triazol-2-yl)phenyl]carbonyl}piperidin-3-yl]oxy}pyridine-3-carboxylate] was tested. Which Ki (human orexin-2 receptor [1]; [4]) did it give?
**A.** Its Ki is 0.00026 µM.

**Q.** What about the IC50 [2] of the same compound?
**A.** The IC50 was 0.208 µM.

**Q.** What about the IC50 (human orexin-2 receptor [3]) of the same compound?
**A.** The IC50 was 0.0169 µM.

**Q.** With `COC(=O)c1c(C#N)ccnc1O[C@@H]1CC[C@@H](C)N(C(=O)c2ccc(F)cc2-c2noc(C)n2)C1` [Example 12, methyl 4-cyano-2-{[(3R,6R)-1-{[4-fluoro-2-(5-methyl-1,2,4-oxadiazol-3-yl)phenyl]carbonyl}-6-methylpiperidin-3-yl]oxy}pyridine-3-carboxylate] as the compound, how does the Ki (human orexin-2 receptor [1]; [4]) read?
**A.** Its Ki is 0.0012 µM.

**Q.** And the IC50 (human orexin-2 receptor [3])?
**A.** Its IC50 is 0.0302 µM.

**Q.** How did the Ki (human orexin-2 receptor [1]; [4]) turn out when `COC(=O)c1c(C#N)ccnc1O[C@@H]1CC[C@@H](C)N(C(=O)c2c(F)cccc2-c2nc(C)no2)C1` [Example 9, methyl 4-cyano-2-{[(3R,6R)-1-{[2-fluoro-6-(3-methyl-1,2,4-oxadiazol-5-yl)phenyl]carbonyl}-6-methylpiperidin-3-yl]oxy}pyridine-3-carboxylate] was run?
**A.** Its Ki is 0.0011 µM.

**Q.** And the IC50 (human orexin-2 receptor [3])?
**A.** The IC50 was 0.0388 µM.

**Q.** Which results are given for `COC(=O)c1c(C#N)ccnc1O[C@@H]1CC[C@@H](C)N(C(=O)c2cc(F)ccc2-c2nc(C)no2)C1` [Example 8, methyl 4-cyano-2-{[(3R,6R)-1-{[5-fluoro-2-(3-methyl-1,2,4-oxadiazol-5-yl)phenyl]carbonyl}-6-methylpiperidin-3-yl]oxy}pyridine-3-carboxylate]?
**A.** Ki (human orexin-2 receptor [1]; [4]): 0.00044 µM; IC50 [2]: 1.47 µM; IC50 (human orexin-2 receptor [3]): 0.0249 µM

**Q.** Which results are given for `COC(=O)c1c(C#N)ccnc1O[C@@H]1CC[C@@H](C)N(C(=O)c2ccc(OC)nc2-n2nccn2)C1` [Example 3, methyl 4-cyano-2-{[(3R,6R)-1-{[6-methoxy-2-(2H-1,2,3-triazol-2-yl)pyridin-3-yl]carbonyl}-6-methylpiperidin-3-yl]oxy}pyridine-3-carboxylate]?
**A.** Ki (human orexin-2 receptor [1]; [4]): 0.0019 µM; IC50 (human orexin-2 receptor [3]): 0.0338 µM

**Q.** What does the source list for `COC(=O)c1c(C#N)ccnc1O[C@@H]1CC[C@@H](C)N(C(=O)c2cc(F)ccc2-c2noc(C)n2)C1` [Example 13, methyl 4-cyano-2-{[(3R,6R)-1-{[5-fluoro-2-(5-methyl-1,2,4-oxadiazol-3-yl)phenyl]carbonyl}-6-methylpiperidin-3-yl]oxy}pyridine-3-carboxylate]?
**A.** Ki (human orexin-2 receptor [1]; [4]): 0.0005 µM; IC50 [2]: 1.03 µM; IC50 (human orexin-2 receptor [3]): 0.0168 µM

**Q.** Which results are given for `COC(=O)c1c(C#N)ccnc1O[C@@H]1CC[C@@H](C)N(C(=O)c2ccccc2-n2nccn2)C1` [Example 1, Methyl 4-cyano-2-{[(3R,6R)-6-methyl-1-{[2-(2H-1,2,3-triazol-2-yl)phenyl]carbonyl}piperidin-3-yl]oxy}pyridine-3-carboxylate]?
**A.** Ki (human orexin-2 receptor [1]; [4]): 0.00046 µM; IC50 [2]: 0.749 µM; IC50 (human orexin-2 receptor [3]): 0.019 µM

**Q.** Which Ki (human orexin-2 receptor [1]; [4]) does the source give for `COC(=O)c1c(C#N)ccnc1O[C@@H]1CC[C@@H](C)N(C(=O)c2c(F)cccc2-c2ncccn2)C1` [Example 24, methyl 4-cyano-2-({(3R,6R)-1-[(2-fluoro-6-pyrimidin-2-ylphenyl)carbonyl]-6-methylpiperidin-3-yl}oxy)pyridine-3-carboxylate] here?
**A.** The Ki was 0.00042 µM.

**Q.** What about the IC50 (human orexin-2 receptor [3]) of the same compound?
**A.** The IC50 was 0.0328 µM.

**Q.** Which results are given for `COC(=O)c1c(C#N)ccnc1O[C@@H]1CC[C@@H](C)N(C(=O)c2cc(C)ccc2-n2nccn2)C1` [Example 18, methyl 4-cyano-2-{[(3R,6R)-6-methyl-1-{[5-methyl-2-(2H-1,2,3-triazol-2-yl)phenyl]carbonyl}piperidin-3-yl]oxy}pyridine-3-carboxylate]?
**A.** Ki (human orexin-2 receptor [1]; [4]): 0.00048 µM; IC50 [2]: 0.311 µM; IC50 (human orexin-2 receptor [3]): 0.022 µM

**Q.** Which Ki (human orexin-2 receptor [1]; [4]) does the source give for `COC(=O)c1c(C#N)ccnc1O[C@@H]1CC[C@@H](C)N(C(=O)c2cccc(F)c2-n2nccn2)C1` [Example 4, methyl 4-cyano-2-{[(3R,6R)-1-{[3-fluoro-2-(2H-1,2,3-triazol-2-yl)phenyl]carbonyl}-6-methylpiperidin-3-yl]oxy}pyridine-3-carboxylate] here?
**A.** The Ki was 0.00044 µM.

**Q.** And the IC50 [2]?
**A.** Its IC50 is 1.02 µM.

**Q.** And the IC50 (human orexin-2 receptor [3])?
**A.** Its IC50 is 0.0157 µM.

**Q.** With `COC(=O)c1c(C#N)ccnc1O[C@@H]1CC[C@@H](C)N(C(=O)c2ccccc2-n2ncnn2)C1` [Example 25] as the compound, how does the Ki (human orexin-2 receptor [1]) read?
**A.** The Ki was 0.00076 µM.

**Q.** And the IC50 [2]?
**A.** The IC50 was 1.29 µM.

**Q.** What about the IC50 (human orexin-2 receptor [3]) of the same compound?
**A.** The IC50 was 0.007 µM.

**Q.** Which results are given for `COC(=O)c1c(C#N)ccnc1O[C@@H]1CC[C@@H](C)N(C(=O)c2cc(F)ccc2-c2ncccn2)C1` [Example 23, methyl 4-cyano-2-({(3R,6R)-1-[(5-fluoro-2-pyrimidin-2-ylphenyl)carbonyl]-6-methylpiperidin-3-yl}oxy)pyridine-3-carboxylate]?
**A.** Ki (human orexin-2 receptor [1]; [4]): 0.00047 µM; IC50 [2]: 0.417 µM; IC50 (human orexin-2 receptor [3]): 0.032 µM

**Q.** What does the source list for `COC(=O)c1c(C#N)ccnc1O[C@@H]1CC[C@@H](C)N(C(=O)c2ccccc2-c2nc(C)no2)C1` [Example 2, Methyl 4-cyano-2-{[(3R,6R)-6-methyl-1-{[2-(3-methyl-1,2,4-oxadiazol-5-yl)phenyl]carbonyl}piperidin-3-yl]oxy}pyridine-3-carboxylate]?
**A.** Ki (human orexin-2 receptor [1]; [4]): 0.00037 µM; IC50 [2]: 0.584 µM; IC50 (human orexin-2 receptor [3]): 0.0208 µM

**Q.** What does the source list for `COC(=O)c1c(C#N)ccnc1O[C@@H]1CC[C@@H](C)N(C(=O)c2cccc(F)c2-c2noc(C)n2)C1` [Example 11, methyl 4-cyano-2-{[(3R,6R)-1-{[3-fluoro-2-(5-methyl-1,2,4-oxadiazol-3-yl)phenyl]carbonyl}-6-methylpiperidin-3-yl]oxy}pyridine-3-carboxylate]?
**A.** Ki (human orexin-2 receptor [1]; [4]): 0.0005 µM; IC50 [2]: 0.956 µM; IC50 (human orexin-2 receptor [3]): 0.0162 µM

**Q.** `COC(=O)c1c(C#N)ccnc1O[C@@H]1CC[C@@H](C)N(C(=O)c2ccc(C)cc2-n2nccn2)C1` [Example 17, methyl 4-cyano-2-{[(3R,6R)-6-methyl-1-{[4-methyl-2-(2H-1,2,3-triazol-2-yl)phenyl]carbonyl}piperidin-3-yl]oxy}pyridine-3-carboxylate] was tested. Which Ki (human orexin-2 receptor [1]; [4]) did it give?
**A.** Its Ki is 0.00058 µM.

**Q.** What about the IC50 (human orexin-2 receptor [3]) of the same compound?
**A.** The IC50 was 0.0243 µM.

**Q.** How did the Ki (human orexin-2 receptor [1]; [4]) turn out when `COC(=O)c1c(C#N)ccnc1O[C@@H]1CC[C@@H](C)N(C(=O)c2c(F)cccc2-c2noc(C)n2)C1` [Example 14, methyl 4-cyano-2-{[(3R,6R)-1-{[2-fluoro-6-(5-methyl-1,2,4-oxadiazol-3-yl)phenyl]carbonyl}-6-methylpiperidin-3-yl]oxy}pyridine-3-carboxylate] was run?
**A.** The Ki was 0.00099 µM.

**Q.** And the IC50 (human orexin-2 receptor [3])?
**A.** Its IC50 is 0.0145 µM.

**Q.** How did the Ki (human orexin-2 receptor [1]; [4]) turn out when `COC(=O)c1c(C#N)ccnc1O[C@@H]1CC[C@@H](C)N(C(=O)c2ccccc2C2CCC2)C1` [Example 26, Methyl 4-cyano-2-(((3R,6R)-1-(2-cyclobutylbenzoyl)-6-methylpiperidin-3-yl)oxy)nicotinate] was run?
**A.** The Ki was 0.00026 µM.

**Q.** And the IC50 (human orexin-2 receptor [3])?
**A.** The IC50 was 0.0193 µM.

**Q.** `COC(=O)c1c(C#N)ccnc1O[C@@H]1CC[C@@H](C)N(C(=O)c2cccc(C)c2-n2nccn2)C1` [Example 16, methyl 4-cyano-2-{[(3R,6R)-6-methyl-1-{[3-methyl-2-(2H-1,2,3-triazol-2-yl)phenyl]carbonyl}piperidin-3-yl]oxy}pyridine-3-carboxylate] was tested. Which Ki (human orexin-2 receptor [1]; [4]) did it give?
**A.** The Ki was 0.00052 µM.

**Q.** What about the IC50 (human orexin-2 receptor [3]) of the same compound?
**A.** The IC50 was 0.0277 µM.

**Q.** How did the Ki (human orexin-2 receptor [1]; [4]) turn out when `COC(=O)c1c(C#N)ccnc1O[C@@H]1CC[C@@H](C)N(C(=O)c2cccc(F)c2-c2ncccn2)C1` [Example 21, methyl 4-cyano-2-({(3R,6R)-1-[(3-fluoro-2-pyrimidin-2-ylphenyl)carbonyl]-6-methylpiperidin-3-yl}oxy)pyridine-3-carboxylate] was run?
**A.** Its Ki is 0.0012 µM.

**Q.** What about the IC50 (human orexin-2 receptor [3]) of the same compound?
**A.** The IC50 was 0.0363 µM.
